# Measurements reported in patent US6379670B1, “Methods for treatment of multiple sclerosis using peptide analogs of human myelin basic protein” (Neurocrine Biosciences, Inc., priority 1994, dated 2002).
# Test system: Lewis rats
# Experiment: Induction of EAE by peptide analog
# Assay type: in vivo, rat
# Experimental: In addition, as a safety measure, but not essential to this invention, suitable peptide analogs may be tested for direct induction of EAE. As described in detail in Example 2, various amounts of peptide analogs are injected at the base of the tail of rats, and the rats examined daily for signs of EAE. A peptide analog which is not considered to cause EAE has a mean cumulative score of less than or equal to 1 over seven days when about 12 mg/kg or less in complete Freund's adjuvant is injected.
# MBP peptide and peptide analogs were dissolved in phosphate-buffered saline (PBS) and emulsified with an equal volume of incomplete Freund's adjuvant supplemented with 4 mg/ml heat-killed Mycobacterium tuberculosis H37Ra in oil (Difco Laboratories, Inc., Detroit, Mich.). Rats were immunized subcutaneously at the base of the tail with 0.1-0.2 ml containing 500 μg of peptide in the emulsion and were monitored for clinical signs daily. EAE was scored on a scale of 0-4, as follows: 0, clinically normal; 1, flaccid tail; 2, hind limb weakness; 3, hind limb paralysis; 4, front and hind limbs affected.
# The ability of peptide analogs to cause EAE is assessed in vivo. Rats were injected with MBP (87-99) or h88/A91 peptide analog as described in Example 2. Animals were monitored daily for evidence of EAE. Rats receiving MBP (87-99) had 100% incidence (18/18 rats) of EAE with a mean maximum clinical score of 2.4±0.2. In contrast, 0/12 rats receiving the peptide analog h88/A91 had EAE.
# [1] = rats injected with 500 μg peptide in adjuvant
rats with EAE / rats injected [1],mean maximum clinical score (scale 0-4),"induction of EAE by the peptide (rat, in vivo)",SMILES,incidence of EAE [1]
18/18,2.4±0.2,–,CC[C@H](C)[C@H](NC(=O)[C@H](CC(N)=O)NC(=O)[C@H](CCCCN)NC(=O)[C@H](Cc1ccccc1)NC(=O)[C@H](Cc1ccccc1)NC(=O)[C@H](Cc1c[nH]cn1)NC(=O)[C@@H](N)C(C)C)C(=O)N[C@H](C(=O)N[C@H](C(=O)N1CCC[C@H]1C(=O)N[C@@H](CCCNC(=N)N)C(=O)N[C@H](C(=O)N1CCC[C@H]1C(=O)O)[C@@H](C)O)[C@@H](C)O)C(C)C [MBP (87-99)],100%
0/12,–,does not induce EAE,CC[C@H](C)[C@H](NC(=O)[C@H](CC(N)=O)NC(=O)[C@H](C)NC(=O)[C@H](Cc1ccccc1)NC(=O)[C@H](Cc1ccccc1)NC(=O)[C@@H](Cc1c[nH]cn1)NC(=O)[C@@H](N)C(C)C)C(=O)N[C@H](C(=O)N[C@H](C(=O)N1CCC[C@H]1C(=O)N[C@@H](CCCNC(=N)N)C(=O)N[C@H](C(=O)N1CCC[C@H]1C(=O)O)[C@@H](C)O)[C@@H](C)O)C(C)C [h88/A91],–
